From patent US11567065B2, “Measuring frequency of pathogen-specific T cells in peripheral blood” (THOMAS JEFFERSON UNIVERSITY, priority 2015, dated 2023)

Tested on: 68A62 CTL
Test: CaFlux assay: Ca2+ flux in monolayer of 68A62 CTL
Assay type: cell-based, human
Conditions: FIG. 4A
Method: 10^6 cells in 1 ml of PBS were loaded with Fluo-4 (Life Technologies) at 2-4 μM for 30 min at 37° C. in the presence of 0.02% pluoronic acid F-127 and 4 mM Probenecid. The cells were washed free of unreacted reagents and incubated at 37° C. for additional 30 min. The cells were then re-suspended in the assay buffer (Dulbecco's PBS containing 1 mM CaCl2, 2 mM MgCl2, 5 mM glucose, and 0.025% BSA) and used for Ca2+ flux analysis.
Glass bottom of 96 well MatTec plates was covered with poly-L-Lysine (Sigma, mol wt>300,000) at 0.1 mg/ml for 1 hr at room temperature. After washing with DPBS and dd water, TS2/4 non-blocking mAb specific for LFA-1 were added to the plate at concentration 10 μg/ml overnight & 4° C. The wells were washed with DPBS, and 3×10^5 Fluo-4-labeled T cells in 100 μl of the assay buffer were added to each well. The plates were centrifuged for 700 g for one minute and were incubated for 30 min at room temperature prior to the imaging. […] The quality of T cell monolayer was assessed using bright field microscopy.
To identify responding T cells we imaged T-cell monolayers before (background measurement) and after (response) addition of the stimulatory signal such as agonist peptide. […] The average intensity of images prior and after the T-cell stimulation at various time points and the numbers of individual responding cells per imaging field were determined by MetaMorph software.

Sequence: ILKEPVHGV (IV9)
- time to maximum of Ca2+ increase following stimulation: 2 to 3 min
